The subject of data set [1] is 11 clinically relevant strains, including the ESKAPEE pathogens. The data set can be described thus: MIC against the whole strain panel. The format is cell-based. Conditions: 11 strains, peptides 1-64 μmol l^-1. An excerpt: We synthesized 12 sequences selected for their ease of synthesis and low aggregation potential: five from AT, four from NE and three from NG. We excluded the ND group because its peptides were challenging to synthesize and solubilize. We determined their minimum inhibitory concentrations (MICs) against 11 clinically relevant strains, including the ESKAPEE pathogens. […] Further investigation is needed to confirm this hypothesis.
Fig. 2 Antimicrobial activity and secondary structure of computationally designed peptides. a, Structure prediction of the synthesized peptides. b, Heatmap of the antimicrobial activities of the peptides against 11 clinically relevant pathogens, including four strains resistant to conventional antibiotics. Briefly, 10^6 bacterial cells and serially diluted peptides (1-64 μmol l^−1) were incubated at 37 °C. One day after treatment, the optical density at 600 nm was measured in a microplate reader to evaluate bacterial growth in the presence of the peptides. MIC values in the heatmap are the mode of the replicates in each condition. c–f, Ternary plots showing the percentage of secondary structure for each peptide (at 50 μmol l^−1) in four different solvents: water (c), 60% TFE in water (d), 10 mmol l^−1 SDS in water (e) and 50% methanol (MeOH) in water (f). Secondary structure fractions were calculated using the BeStSel server. […]

For another data set, the system named is HEK293T cells. Description: Cytotoxicity, MTT assay. The format is cell-based, human. Conditions: 24 h. On the procedure: Fig. 3 Mechanism of action and cytotoxic activity of designed peptides. a, To assess whether the peptides act on bacterial membranes, all active peptides against A. baumannii American Type Culture Collection (ATCC) 19606 were subjected to outer-membrane permeabilization, and peptides active against A. baumannii ATCC 19606 and vancomycin-resistant E. faecalis ATCC 700802 were tested in cytoplasmic-membrane depolarization assays. b, The fluorescent probe NPN was used to assess membrane permeabilization induced by the tested peptides. c,d, The fluorescent probe DiSC3-5 was used to evaluate membrane depolarization caused by the designed peptides in A. baumannii ATCC 19606 (c) and vancomycin-resistant E. faecalis ATCC 700802 (d). […] All experiments were performed in three independent replicates. Panel a created with BioRender.com. Source data TEXT PRINTED IN THE PICTURE: (e) AT1: CC50 (μmol l^-1), HEK293T cells: 2,758 | (e) AT2: CC50 (μmol l^-1), HEK293T cells: 2 × 10^37 | (e) AT3: CC50 (μmol l^-1), HEK293T cells: 269 | (e) AT4: CC50 (μmol l^-1), HEK293T cells: 3,015 | (e) AT5: CC50 (μmol l^-1), HEK293T cells: 6 × 10^41 | (e) NE1: CC50 (μmol l^-1), HEK293T cells: 6 × 10^33 | (e) NE2: CC50 (μmol l^-1), HEK293T cells: 507 | (e) NE3: CC50 (μmol l^-1), HEK293T cells: 655 | (e) NE4: CC50 (μmol l^-1), HEK293T cells: 2 × 10^32 | (e) NG1: CC50 (μmol l^-1), HEK293T cells: 351 | (e) NG2: CC50 (μmol l^-1), HEK293T cells: 1 × 10^35 | (e) NG3: CC50 (μmol l^-1), HEK293T cells: 2 × 10^46 DOUBTS OF THE COPYIST ABOUT THIS PICTURE: AT2, CC50: small exponent, 37 or 57 / AT5, CC50: small exponent, 41 uncertain / NE1, CC50: small exponent, 33 or 38 / NE4, CC50: small exponent, 32 or 52 / NG2, CC50: small exponent, 35 or 36 / NG3, CC50: small exponent, 46 or 48 […]
HEK293T cells were obtained from the ATCC (CRL-3216). The cells were cultured in high-glucose DMEM supplemented with 1% penicillin and streptomycin (antibiotics) and 10% fetal bovine serum and grown at 37 °C in a humidified atmosphere containing 5% CO2.
One day before the experiment, an aliquot of 100 μl of the cells at 50,000 cells ml^−1 was seeded into each well of the cell-treated 96-well plates used in the experiment (that is, 5,000 cells per well)[45]. The attached HEK293T cells were then exposed to increasing concentrations of the peptides (4–64 μmol l^−1) for 24 h. After the incubation period, we performed the (3-(4,5-dimethylthiazol-2-yl)-2,5-diphenyltetrazolium bromide) tetrazolium reduction assay (MTT assay)[45]. […] The resulting salts were then resuspended in hydrochloric acid (0.04 mol l^−1) in anhydrous isopropanol and quantified by spectrophotometric measurements of absorbance at 570 nm. […]
For orientation: Tetrazolium dyes change colour on reduction, which living cells bring about.

Data set [2] relates to E. faecalis ATCC 700802 - VRE. The format is cell-based, Enterococcus faecalis. The conditions noted are these: ATCC 700802, 24 h. As to the method:
(§1) Fig. 2 Antimicrobial activity and secondary structure of computationally designed peptides. a, Structure prediction of the synthesized peptides. b, Heatmap of the antimicrobial activities of the peptides against 11 clinically relevant pathogens, including four strains resistant to conventional antibiotics. Briefly, 10^6 bacterial cells and serially diluted peptides (1-64 μmol l^−1) were incubated at 37 °C. One day after treatment, the optical density at 600 nm was measured in a microplate reader to evaluate bacterial growth in the presence of the peptides. MIC values in the heatmap are the mode of the replicates in each condition. c–f, Ternary plots showing the percentage of secondary structure for each peptide (at 50 μmol l^−1) in four different solvents: water (c), 60% TFE in water (d), 10 mmol l^−1 SDS in water (e) and 50% methanol (MeOH) in water (f). Secondary structure fractions were calculated using the BeStSel server. […] An error of one column cannot be fully excluded. / Panel b: AT1, AT2, AT3 and all blank cells print no number and are left out.
(§2) Broth microdilution assays[64] were conducted to establish the MIC for each peptide. Peptides were added to untreated polystyrene 96-well microtiter plates and serially diluted twofold in sterile water, ranging from 1 to 64 μmol l^−1. A bacterial inoculum at a concentration of 10^6 CFU ml^−1 in LB medium was then mixed in a 1:1 ratio with the peptide solution. […] Each assay was performed in three independent replicates.

Data set [3] relates to E. faecium ATCC 700221 - VRE. In kind it is cell-based. Conditions: ATCC 700221, 24 h. As to the method: as §1, §2
The test system of data set [4] is A. baumannii ATCC 19606. In kind it is cell-based, Acinetobacter baumannii. Conditions: ATCC 19606, 24 h. On the procedure:
as §1
In this study, we used the following pathogenic bacterial strains: A. baumannii ATCC 19606, E. coli AIC221 (E. coli MG1655 phnE_2::FRT (control strain for AIC222)) and E. coli AIC222 (E. coli MG1655 pmrA53 phnE_2::FRT (polymyxin resistant; colistin-resistant strain)), Klebsiella pneumoniae ATCC 13883, Pseudomonas aeruginosa PAO1, P. aeruginosa PA14 and Staphylococcus aureus ATCC 12600. All pathogens were grown in Luria–Bertani (LB) broth and on LB agar. Pseudomonas isolation (P. aeruginosa strains) agar plates were exclusively used in the case of Pseudomonas species. In all the experiments, bacteria were inoculated from one isolated colony and grown overnight (16 h) in liquid medium at 37 °C. On the following day, inocula were diluted 1:100 in fresh media and incubated at 37 °C to mid-logarithmic phase.
as §2

Data set [5] concerns A. baumannii ATCC 19606. The data set can be described thus: Cytoplasmic-membrane depolarization, DiSC3-5. The format is cell-based, Acinetobacter baumannii. Conditions: DiSC3-5 fluorescence, peptides at their MIC, 60 min. On the procedure:
Fig. 3 Mechanism of action and cytotoxic activity of designed peptides. a, To assess whether the peptides act on bacterial membranes, all active peptides against A. baumannii American Type Culture Collection (ATCC) 19606 were subjected to outer-membrane permeabilization, and peptides active against A. baumannii ATCC 19606 and vancomycin-resistant E. faecalis ATCC 700802 were tested in cytoplasmic-membrane depolarization assays. b, The fluorescent probe NPN was used to assess membrane permeabilization induced by the tested peptides. c,d, The fluorescent probe DiSC3-5 was used to evaluate membrane depolarization caused by the designed peptides in A. baumannii ATCC 19606 (c) and vancomycin-resistant E. faecalis ATCC 700802 (d). […] All experiments were performed in three independent replicates. […]
The cytoplasmic-membrane depolarization assay was performed using the membrane-potential-sensitive dye DiSC3-5. […] Membrane depolarization was then followed by reading changes in the fluorescence (λex = 622 nm, λem = 670 nm) over time for 60 min. The relative fluorescence was calculated using the untreated control (buffer + bacteria + fluorescent dye) as baseline and the following equation was applied to reflect the percentage difference between the baselines and the sample: percentagedifference=100×(fluorescencesample−fluorescenceuntreatedcontrol)/fluorescenceuntreatedcontrol. […]

Data set [6] in a line: Mouse weight in the skin abscess model. Also on record: species or system CD-1 mice. Conditions: in vivo. On the procedure: The backs of six-week-old female CD-1 mice under anaesthesia were shaved and injured with a superficial linear skin abrasion made with a needle. An aliquot of A. baumannii ATCC 19606 (2 × 10^6 CFU ml^−1; 20 μl) previously grown in LB medium until 0.5 optical density ml^−1 (optical value at 600 nm) and then washed twice with sterile PBS (pH 7.4, 9,391 g for 3 min) was added to the scratched area. Peptides diluted in sterile water at MIC value were administered to the wound area 1 h after the infection. Two and four days after infection animals were euthanized, and the scarified skin was excised, homogenized using a bead beater (25 Hz for 20 min), tenfold serially diluted, and plated on McConkey agar plates for CFU quantification. The experiments were performed using six mice per group. Mice were housed in groups of three and maintained under a 12-h light/dark cycle at 22 °C with humidity controlled at 50%. The skin abscess infection mouse model was revised and approved by University Laboratory Animal Resources from the University of Pennsylvania (protocol 806763).
Figure S6. Cytotoxicity and anti-infective activity of designed peptides. (a) Cytotoxic effects of increasing concentrations ([…]) of each peptide on human embryonic kidney (HEK293T) cells after 24 h of treatment. Mouse weight was monitored throughout the duration of the (b) skin abscess model (4 days total) and the (e) deep thigh infection model (8 days total) to assess potential toxic effects of both the bacterial load and the designed peptides. (c) Schematic of the neutropenic thigh infection mouse model, where the designed peptides were administered intraperitoneally. Anti-infective activity against A. baumannii ATCC 19606 was evaluated 4 days after intraperitoneal peptide administration (n = 6). (d) Four days after intraperitoneal injection, NE2 at its MIC (32 µmol L-1) inhibited by […]
Statistical significance in panel d was determined using one-way ANOVA followed by Dunnett’s test; P values are shown in the graphs. […]

≈ marks a conversion by molar mass, not a printed value. Where no end group is shown, it is not given here.

In the case of HWHAILIHFHFA [AT1], the “MIC against at least one strain / activity in the panel” value in data set [1] was “inactive”. Besides, the “CC50, cytotoxic concentration leading to 50% cell lysis” value (“CC50 … to 50% cell lysis” below) with HEK293T cells came out at 2758 µM.
What is called MIC is the smallest concentration in the dilution series that meets the test's criterion for growth inhibition. A high value points to a less susceptible organism. For the compound WHFHVWIHCIAF [NE3], the MIC in data set [2] was found to be 16 µM; in data set [3], 32 µM. The “CC50 … to 50% cell lysis” value in the data set with HEK293T cells turned out to be 655.4 µM.
As for `CC[C@H](C)[C@H](NC(=O)[C@H](CS)NC(=O)[C@H](CC(C)C)NC(=O)[C@H](Cc1c[nH]c2ccccc12)NC(=O)[C@H](C)NC(=O)[C@H](CCSC)NC(=O)[C@H](C)NC(=O)[C@H](Cc1c[nH]cn1)NC(=O)[C@@H]1CCCN1)C(=O)N[C@@H](CCCNC(=N)N)C(=O)N[C@@H](Cc1ccccc1)C(=O)N[C@@H](Cc1c[nH]cn1)C(=O)O` [NE1], the MIC with A. baumannii ATCC 19606 [4] turned out to be 32 µM (≈ 47.4 µg/mL); in data set [2] it was 8 µM (≈ 11.9 µg/mL); in data set [3] it was 16 µM (≈ 23.7 µg/mL). Further, the cytoplasmic-membrane depolarization result in the data set on A. baumannii ATCC 19606 [5] is “particularly effective”.
For HWHNKVLHWHIQ [AT3], the “MIC against at least one strain / activity in the panel” value in data set [1] is “inactive”. Besides, in the data set on HEK293T cells, the “CC50 … to 50% cell lysis” value came out at 268.9 µM.
Consider `C[C@H]1COc2c(N3CCN(C)CC3)c(F)cc3c(=O)c(C(=O)O)cn1c23` [Levofloxacin, reference compound], for which, in data set [6], the “mouse weight (day 0 = 100)” value stood at 105.
Regarding IWHAAVLHFAIS [AT5], the MIC was 64 µM in data set [2] and 32 µM in data set [3].
FKLCFVLHFVAL [NE4] showed a minimum inhibitory concentration (MIC) in data set [2] of 8 µM.
In the case of HWHLILHFHACH [NG2], the MIC in data set [2] and in data set [3] was 64 µM each time.
